Active and inactive are the calls of the source. The rule behind the calls is not given here.
Experiments:
SK-N-AS [1] = experiment: Growth inhibition of human SK-N-AS cells at 4 uM after 24 hrs by MTT assay relative to control; format: functional; details: read-out: GI
SK-N-AS [2] = experiment: Growth inhibition of human SK-N-AS cells at 4 uM after 72 hrs by MTT assay relative to control; format: functional; details: read-out: GI
SK-N-AS [3] = experiment: Cell cycle arrest in human SK-N-AS cells assessed as accumulation at sub-G1 phase at 0.4 uM after 8 hrs by propidium iodide staining based flow cytometry (reference value: 1.13 +/- 0.13%); format: functional
IMR-32 [4] = experiment: Growth inhibition of human IMR32 cells at 0.1 uM after 24 hrs by MTT assay relative to control; format: functional; details: IMR-32, 24 h, read-out: GI
Mus musculus = experiment: Toxicity in specific-pathogen-free KSN athymic nude mouse xenografted with human SK-N-AS cells assessed as change in body weight at 12.5 to 50 mg/kg/day administered ip for 2 weeks measured on day 21; format: organism-based; details: in vivo, 336 h
IMR-32 [5] = experiment: Reduction in N-myc mRNA expression level in human IMR32 cells at 4 uM after 24 hrs by real-time PCR method relative to control; format: functional; set-up: scale not given: the % may be the effect or the level left
SK-N-AS [6] = experiment: Cell cycle arrest in human SK-N-AS cells assessed as decrease in S phase population at 0.4 uM after 48 hrs by propidium iodide staining based flow cytometry relative to control; format: functional
SK-N-AS [7] = experiment: Antitumor activity against human SK-N-AS cells xenografted in specific-pathogen-free KSN athymic nude mouse assessed as tumor growth inhibition at 50 mg/kg/day administered ip for 2 weeks measured on day 21 relative to control; format: functional; details: read-out: TGI
SK-N-AS [8] = experiment: Induction of apoptosis in human SK-N-AS cells assessed as decrease in Bcl-2 mRNA expression level at 0.4 uM after 24 hrs by real-time PCR method relative to control; format: functional; set-up: scale not given: the % may be the effect or the level left
SK-N-AS [9] = experiment: Cell cycle arrest in human SK-N-AS cells assessed as accumulation at S phase at 0.4 uM after 8 hrs by propidium iodide staining based flow cytometry (reference value: 28.55 +/- 0.74%); format: functional
IMR-32 [10] = experiment: Reduction in N-myc mRNA expression level in human IMR32 cells at 0.4 to 4 uM after 8 hrs by real-time PCR method; format: functional, cell-based
SK-N-AS [11] = experiment: Cell cycle arrest in human SK-N-AS cells assessed as accumulation at G2/M phase at 0.4 uM after 24 hrs by propidium iodide staining based flow cytometry (reference value: 25.31 +/- 2.89%); format: functional
SK-N-AS [12] = experiment: Cell cycle arrest in human SK-N-AS cells assessed as accumulation at sub-G1 phase at 0.4 uM after 48 hrs by propidium iodide staining based flow cytometry (reference value: 1.13 +/- 0.13%); format: functional
SK-N-AS [13] = experiment: Antitumor activity against human SK-N-AS cells xenografted in specific-pathogen-free KSN athymic nude mouse assessed as tumor growth inhibition at 12.5 mg/kg/day administered ip for 2 weeks measured on day 21 relative to control; format: functional; details: read-out: TGI
SK-N-AS [14] = experiment: Cell cycle arrest in human SK-N-AS cells assessed as decrease in G2/M phase population at 0.4 uM after 72 hrs by propidium iodide staining based flow cytometry relative to control; format: functional
IMR-32 [15] = experiment: Growth inhibition of human IMR32 cells at 0.01 uM after 72 hrs by MTT assay relative to control; format: functional; details: IMR-32, 72 h, read-out: GI
SK-N-AS [16] = experiment: Induction of apoptosis in human SK-N-AS cells assessed as increase in caspase-3 activity at 4 uM by CPP32 based colorimetric assay; format: functional, cell-based; details: TDE = time-dependent effect
SK-N-AS [17] = experiment: Cell cycle arrest in human SK-N-AS cells assessed as accumulation at G2/M phase at 0.4 uM after 8 hrs by propidium iodide staining based flow cytometry (reference value: 25.31 +/- 2.89%); format: functional
IMR-32 [18] = experiment: Growth inhibition of human IMR32 cells at 0.1 uM after 72 hrs by MTT assay relative to control; format: functional; details: IMR-32, 72 h, read-out: GI
SK-N-AS [19] = experiment: Induction of apoptosis in human SK-N-AS cells assessed as decrease in Bcl-2 mRNA expression level after 8 hrs by real-time PCR method; format: functional, cell-based
SK-N-AS [20] = experiment: Induction of apoptosis in human SK-N-AS cells assessed as increase in caspase-3 activity at 0.4 uM after 24 hrs by CPP32 based colorimetric assay relative to control; format: functional
SK-N-AS [21] = experiment: Cell cycle arrest in human SK-N-AS cells assessed as increase in G0/G1 cell population at 0.4 uM after 48 hrs by propidium iodide staining based flow cytometry relative to control; format: functional
SK-N-AS [22] = experiment: Cell cycle arrest in human SK-N-AS cells assessed as accumulation at S phase at 0.4 uM after 72 hrs by propidium iodide staining based flow cytometry (reference value: 28.55 +/- 0.74%); format: functional
SK-N-AS [23] = experiment: Cell cycle arrest in human SK-N-AS cells assessed as decrease in G2/M phase population at 0.4 uM after 48 hrs by propidium iodide staining based flow cytometry relative to control; format: functional
SK-N-AS [24] = experiment: Cell cycle arrest in human SK-N-AS cells assessed as increase in sub-G1 phase population at 4 uM after 24 hrs by propidium iodide staining based flow cytometry relative to control; format: functional
SK-N-AS [25] = experiment: Cell cycle arrest in human SK-N-AS cells assessed as increase in G0/G1 cell population at 0.4 uM after 72 hrs by propidium iodide staining based flow cytometry relative to control; format: functional
SK-N-AS [26] = experiment: Cell cycle arrest in human SK-N-AS cells assessed as decrease in S phase population at 0.4 uM after 24 hrs by propidium iodide staining based flow cytometry relative to control; format: functional
SK-N-AS [27] = experiment: Induction of apoptosis in human SK-N-AS cells assessed as increase in caspase-3 activity at 4 uM after 8 hrs by CPP32 based colorimetric assay relative to control; format: functional
SK-N-AS [28] = experiment: Cell cycle arrest in human SK-N-AS cells assessed as increase in sub-G1 phase population at 0.4 uM after 24 hrs by propidium iodide staining based flow cytometry relative to control; format: functional
SK-N-AS [29] = experiment: Induction of apoptosis in human SK-N-AS cells assessed as decrease in Bcl-2 mRNA expression level after 24 hrs by real-time PCR method; format: functional, cell-based
SK-N-AS [30] = experiment: Induction of apoptosis in human SK-N-AS cells assessed as increase in caspase-3 activity at 4 uM after 24 hrs by CPP32 based colorimetric assay relative to control; format: functional
SK-N-AS [31] = experiment: Antitumor activity against human SK-N-AS cells xenografted in specific-pathogen-free KSN athymic nude mouse assessed as decrease in tumor weight at 50 mg/kg/day administered ip for 2 weeks measured on day 21 relative to control; format: functional; set-up: scale not given: the % may be the effect or the level left
SK-N-AS [32] = experiment: Growth inhibition of human SK-N-AS cells at 1 uM after 24 hrs by MTT assay relative to control; format: functional; details: read-out: GI
IMR-32 [33] = experiment: Induction of apoptosis in human IMR32 cells assessed as decrease in Bcl-2 mRNA expression level at 0.4 to 4 uM after 24 hrs by real-time PCR method relative to control; format: functional; set-up: scale not given: the % may be the effect or the level left
SK-N-AS [34] = experiment: Induction of apoptosis in human SK-N-AS cells assessed as decrease in Bcl-2 mRNA expression level at 4 uM after 24 hrs by real-time PCR method relative to control; format: functional; set-up: scale not given: the % may be the effect or the level left
SK-N-AS [35] = experiment: Cell cycle arrest in human SK-N-AS cells assessed as increase in G0/G1 cell population at 0.4 uM after 24 hrs by propidium iodide staining based flow cytometry relative to control; format: functional
IMR-32 [36] = experiment: Induction of apoptosis in human IMR32 cells assessed as decrease in Bcl-2 mRNA expression level at 0.4 to 4 uM after 8 hrs by real-time PCR method; format: functional, cell-based
SK-N-AS [37] = experiment: Cell cycle arrest in human SK-N-AS cells assessed as accumulation at G0/G1 phase at 0.4 uM after 8 hrs by propidium iodide staining based flow cytometry (reference value: 46.14 +/- 3.63%); format: functional
SK-N-AS [38] = experiment: Cell cycle arrest in human SK-N-AS cells at 4 uM by propidium iodide staining based flow cytometry; format: functional; details: TDE = time-dependent effect
IMR-32 [39] = experiment: Growth inhibition of human IMR32 cells at 0.4 uM after 72 hrs by MTT assay relative to control; format: functional; details: IMR-32, 72 h, read-out: GI
SK-N-AS [40] = experiment: Cell cycle arrest in human SK-N-AS cells assessed as accumulation at sub-G1 phase at 0.4 uM after 72 hrs by propidium iodide staining based flow cytometry (reference value: 1.13 +/- 0.13%); format: functional
SK-N-AS [41] = experiment: Antitumor activity against human SK-N-AS cells xenografted in specific-pathogen-free KSN athymic nude mouse assessed as decrease in tumor weight at 12.5 mg/kg/day administered ip for 2 weeks measured on day 21 relative to control; format: functional; set-up: scale not given: the % may be the effect or the level left
SK-N-AS [42] = experiment: Growth inhibition of human SK-N-AS cells at 1 uM after 72 hrs by MTT assay relative to control; format: functional; details: read-out: GI
SK-N-AS [43] = experiment: Induction of apoptosis in human SK-N-AS cells assessed as increase in caspase-3 activity at 0.4 uM after 8 hrs by CPP32 based colorimetric assay relative to control; format: functional

CCCCCCCCCC(=O)Nc1ccc(O)cc1
inhibition of growth at 4 µM (SK-N-AS [1]): 5% | inhibition of growth at 4 µM (SK-N-AS [2]): 13%

CCCCCCCCCCCCNc1ccc(O)cc1
Activity (SK-N-AS [3]): 1.19% | inhibition of growth at 0.1 µM (IMR-32 [4]): 78% | Activity (Mus musculus): Non-Toxic | Activity (IMR-32 [5]): 52% | fold change (FC) (SK-N-AS [6]): 0.89 | inhibition in vivo at 50 mg/kg/day (SK-N-AS [7]): 58% | Activity (SK-N-AS [8]): 35% | Activity (SK-N-AS [9]): 22.4% | Activity (IMR-32 [10]): inactive | Activity (SK-N-AS [11]): 24.84% | Activity (SK-N-AS [12]): 5.57% | inhibition in vivo at 12.5 mg/kg/day (SK-N-AS [13]): 40% | fold change (FC) (SK-N-AS [14]): 0.68 | inhibition of growth at 0.01 µM (IMR-32 [15]): 15% | Activity (SK-N-AS [16]): Tde | Activity (SK-N-AS [17]): 30.56% | inhibition of growth at 0.1 µM (IMR-32 [18]): 92% | Activity (SK-N-AS [19]): inactive | fold change (FC) (SK-N-AS [20]): 5.3 | fold change (FC) (SK-N-AS [21]): 1.18 | Activity (SK-N-AS [22]): 28.8% | fold change (FC) (SK-N-AS [23]): 0.79 | fold change (FC) (SK-N-AS [24]): 23 | fold change (FC) (SK-N-AS [25]): 1.17 | fold change (FC) (SK-N-AS [26]): 0.73 | fold change (FC) (SK-N-AS [27]): 3.6 | fold change (FC) (SK-N-AS [28]): 3 | Activity (SK-N-AS [29]): Dose-dependent effect | fold change (FC) (SK-N-AS [30]): 12 | Activity (SK-N-AS [31]): 37% | inhibition of growth at 1 µM (SK-N-AS [32]): 82% | Activity (IMR-32 [33]): 63% | Activity (SK-N-AS [34]): 19% | fold change (FC) (SK-N-AS [35]): 1.18 | Activity (IMR-32 [36]): inactive | Activity (SK-N-AS [37]): 47.04% | Activity (SK-N-AS [38]): Tde | inhibition of growth at 0.4 µM (IMR-32 [39]): 100% | Activity (SK-N-AS [40]): 9.78% | Activity (SK-N-AS [41]): 33% | inhibition of growth at 1 µM (SK-N-AS [42]): 83 to 90% | fold change (FC) (SK-N-AS [43]): 1.6

CCCCCCCCCCNc1ccc(O)cc1
inhibition of growth at 1 µM (SK-N-AS [32]): 44% | inhibition of growth at 1 µM (SK-N-AS [42]): 60%
